According to the NIST ThermoML archive (doi:10.1016/j.jct.2018.01.019):

Test: molar heat capacity at constant pressure
Conditions: 101.33 kPa, Small sample (50 mg) DSC

O=[Si]=O [silicon dioxide]
Conditions	molar heat capacity at constant pressure [J/K/mol]
809.47 K, Crystal 2	72.53
809.64 K, Crystal 2	72.6
809.8 K, Crystal 2	72.59
809.97 K, Crystal 2	72.54
855 K, Crystal 1	69.38
855.17 K, Crystal 1	69.28
855.33 K, Crystal 1	69.26
855.5 K, Crystal 1	69.13
855.67 K, Crystal 1	69.16
855.83 K, Crystal 1	69.22
856 K, Crystal 1	69.21
856.16 K, Crystal 1	69.11
856.33 K, Crystal 1	69.06
856.5 K, Crystal 1	68.99
856.66 K, Crystal 1	68.93
856.83 K, Crystal 1	68.69
857 K, Crystal 1	68.5
857.17 K, Crystal 1	68.55
857.34 K, Crystal 1	68.66
857.51 K, Crystal 1	68.7
857.68 K, Crystal 1	68.71
857.84 K, Crystal 1	68.75
858.01 K, Crystal 1	68.66
858.17 K, Crystal 1	68.56
858.34 K, Crystal 1	68.6
858.51 K, Crystal 1	68.58
858.68 K, Crystal 1	68.63
858.84 K, Crystal 1	68.51
859.01 K, Crystal 1	68.34
859.18 K, Crystal 1	68.29
859.34 K, Crystal 1	68.29
859.51 K, Crystal 1	68.3
859.68 K, Crystal 1	68.35
859.84 K, Crystal 1	68.21
860.01 K, Crystal 1	68.03
860.18 K, Crystal 1	68.14
860.34 K, Crystal 1	68.2
860.51 K, Crystal 1	68.18
860.67 K, Crystal 1	68.22
860.84 K, Crystal 1	68.32
861.01 K, Crystal 1	68.41
861.17 K, Crystal 1	68.37
861.34 K, Crystal 1	68.49
861.51 K, Crystal 1	68.55
861.67 K, Crystal 1	68.37
861.84 K, Crystal 1	68.37
862.01 K, Crystal 1	68.4
862.18 K, Crystal 1	68.4
862.34 K, Crystal 1	68.53
862.51 K, Crystal 1	68.5
862.68 K, Crystal 1	68.45
862.84 K, Crystal 1	68.5
863.01 K, Crystal 1	68.42
863.18 K, Crystal 1	68.35
863.35 K, Crystal 1	68.3
863.51 K, Crystal 1	68.21
863.68 K, Crystal 1	68.19
863.85 K, Crystal 1	68.28
864.01 K, Crystal 1	68.44
864.18 K, Crystal 1	68.48
864.34 K, Crystal 1	68.4
864.51 K, Crystal 1	68.29
864.68 K, Crystal 1	68.37
864.84 K, Crystal 1	68.59
865.01 K, Crystal 1	68.52
865.18 K, Crystal 1	68.35
865.34 K, Crystal 1	68.39
865.5 K, Crystal 1	68.4
865.67 K, Crystal 1	68.46
865.84 K, Crystal 1	68.59
866.01 K, Crystal 1	68.64
866.18 K, Crystal 1	68.69
866.35 K, Crystal 1	68.59
866.51 K, Crystal 1	68.39
866.67 K, Crystal 1	68.35
866.84 K, Crystal 1	68.26
867.01 K, Crystal 1	68.21
867.17 K, Crystal 1	68.25
867.34 K, Crystal 1	68.38
867.51 K, Crystal 1	68.37
867.67 K, Crystal 1	68.45
867.84 K, Crystal 1	68.49
868.01 K, Crystal 1	68.4
868.18 K, Crystal 1	68.35
868.34 K, Crystal 1	68.32
868.51 K, Crystal 1	68.4
868.68 K, Crystal 1	68.45
868.85 K, Crystal 1	68.49
869.01 K, Crystal 1	68.43
